In patent publication US20220169632A1, “METHODS AND MATERIALS FOR INCREASING OR MAINTAINING NICOTINAMIDE MONONUCLEOTIDE ADENYLYL TRANSFERASE-2 (NMNAT2) POLYPEPTIDE LEVELS” (University of Pittsburgh - Of the Commonwealth System of …, priority 2019, published 2022):
pIC50: −log10 of the molar value.

What was measured:
NMNAT2-V5 polypeptide = NMNAT2-V5 polypeptide expression in transfected Beas2B cells (Western blot), dose dependent, 24 h; format: cell-based; details: Beas2B cells transfected with NMNAT2-V5 plasmid, compound for 24 hours, read-out: A: compound efficacy (IC50) for NMNAT2 activation
Protocol: FIG. 1. Beas2B cells were transfected with NMNAT2-V5 plasmid. 24 hours later, cells were treated with compounds in a dose dependent manner (0, 1, 5, and 25 μM) for additional 24 hours. Cells were then collected and assayed for NMNAT2-V5 protein expression.
Selected compounds were tested in vitro. Briefly, Beas2B cells were transfected with NMNAT2-V5 plasmid. 24 hours later, cells were treated with a test compound in a dose dependent manner for additional 24 hours. Cells were then collected and assayed for NMNAT2-V5 polypeptide expression. Results of the assay are shown in Table A. Western blots showing levels of NMNAT2-V5 polypeptide for selected compounds are shown in FIG. 1.

NMNAT2 = assay: NMNAT2-Hibit nano-luciferase activity in transfected U87MG cells, 5 μM, 48 hours; format: cell-based; details: NMNAT2-Hibit luciferase plasmid, 48 hours (Table D)
Protocol: Selected compounds were tested in vitro. Briefly, U87MG cells were transfected with NMNAT2-Hibit luciferase plasmid. Cells were treated with test compound at 5 μM for 48 hours. Cells were then collected and assayed for nano-luciferase activity.

Row | Compound | pIC50 (NMNAT2-V5 polypeptide) | D: compound efficacy for NMNAT2 activation; increase in NMNAT2 luciferase activity (NMNAT2)
1 | O=C(COCc1cc(-c2cccs2)sn1)NCCN1CCC(Cc2ccccc2)CC1 [BC18115] | 4.60 to 5.30 | 
2 | CC(=O)Nc1ccc(NC(=O)c2ccccc2OCc2nc(-c3ccc(C)cc3)ns2)cc1 [BC18116] | ≤ 4.60 | 
3 | COc1ccc(OC)c(CCNC(=O)C(Cc2ccccc2)N2Cc3ccccc3C2)c1 (stereo not drawn) [BC18117] | 4.60 to 5.30 | 
4 | COc1ccc(OCC(=O)Nc2ccc3c(c2)nc(CCNC(=O)c2cccs2)n3C)cc1 [BC18118] | ≤ 4.60 | 
5 | O=C(CCc1nnc2n(Cc3ccccc3)c(=O)c3ccccc3n12)N1CCN(CCOc2ccc(Cl)cc2)CC1 [BC18120] | > 5.30 | 
6 | CN(CCc1nsc(-c2ccc(C(=O)NCc3ccc4c(c3)OCO4)cc2)n1)C(=O)c1ccccc1 [BC18121] | ≤ 4.60 | 
7 | O=C(Cn1c(=O)[nH]c2ccccc2c1=O)NCc1ccncc1 [BC18122] | 4.60 to 5.30 | 
8 | Cc1n[nH]c(/C=C/c2ccc(N)cc2)c1S(=O)(=O)N1CCC(C(=O)N2CCN(Cc3ccc4c(c3)OCO4)CC2)CC1 [BC18123] | > 5.30 | 
9 | O=C(COc1ccc(F)cc1)N1CCN(Cc2cccc(-c3n[nH]c(-c4cccc(Cl)c4)n3)c2)CC1 [BC18124] | > 5.30 | 
10 | Cc1ccc2onc(CNC(=O)NCc3cccc(Cl)c3)c2c1 [BC18125] | > 5.30 | 
11 | O=C(Cn1ccc2ccc(F)cc21)NCc1ccco1 [BC18126] | > 5.30 | 
12 | O=C(Cn1ccc2ccc(F)cc21)NCc1ccccn1 [BC18127] | 4.60 to 5.30 | 
13 | CCC(=O)c1cn(CC(=O)NCc2cccnc2)c2ccccc12 [BC181226] |  | + (“+” <20% increase in NMNAT2 luciferase activity.)
14 | CCN(CC)C(=O)C(=O)c1cn(CC(=O)NCCc2ccccc2)c2ccccc12 [BC181227] |  | + (“+” <20% increase in NMNAT2 luciferase activity.)
15 | CCc1cccc2c(C(=O)C(=O)NCCc3ccccc3)cn(Cc3ccccc3)c12 [BC181228] |  | + (“+” <20% increase in NMNAT2 luciferase activity.)
16 | CCn1cc(CCCC(=O)NCc2ccc(F)cc2)c2ccccc21 [BC181229] |  | ++ (“++” >20% and <100% increase in NMNAT2 luciferase activity.)
17 | Cc1ccc(Cn2cc(CCCC(=O)NCc3ccco3)c3ccccc32)cc1 [BC181230] |  | +++ (“+++” >100% increase in NMNAT2 luciferase activity.)
18 | Cc1ccc(Cn2cc(CCCC(=O)NCc3ccco3)c3ccccc32)cc1 [BC181231] |  | ++ (“++” >20% and <100% increase in NMNAT2 luciferase activity.)
19 | Cc1ccc(Cn2cc(CCCC(=O)NC(C)C)c3ccccc32)cc1 [BC181232] |  | + (“+” <20% increase in NMNAT2 luciferase activity.)
20 | CCCNC(=O)CCCc1cn(Cc2ccc(C)cc2)c2ccccc12 [BC181233] |  | + (“+” <20% increase in NMNAT2 luciferase activity.)
21 | COCCNC(=O)CCCc1cn(Cc2ccc(C)cc2)c2ccccc12 [BC181234] |  | ++ (“++” >20% and <100% increase in NMNAT2 luciferase activity.)
22 | Cc1ccccc1Cn1cc(CCCC(=O)NCc2ccco2)c2ccccc21 [BC181235] |  | ++ (“++” >20% and <100% increase in NMNAT2 luciferase activity.)
23 | Cc1ccccc1Cn1cc(CCC(=O)NCc2ccco2)c2ccccc21 [BC181237] |  | ++ (“++” >20% and <100% increase in NMNAT2 luciferase activity.)
24 | Cc1ccccc1Cn1cc(CCC(=O)NCC2=CC=CC2)c2ccccc21 [BC181238] |  | ++ (“++” >20% and <100% increase in NMNAT2 luciferase activity.)
25 | Cc1ccc(Cn2cc(CCC(=O)NCC3=CC=CC3)c3ccccc32)cc1 [BC181239] |  | + (“+” <20% increase in NMNAT2 luciferase activity.)
26 | Cc1ccc(Cn2cc(CCC(=O)NCc3ccco3)c3ccccc32)cc1 [BC181240] |  | + (“+” <20% increase in NMNAT2 luciferase activity.)
27 | Cc1ccccc1Cn1cc(CCC(=O)NCc2ccco2)c2ccccc21 [BC181241] |  | + (“+” <20% increase in NMNAT2 luciferase activity.)

Row | Compound | pIC50 (NMNAT2-V5 polypeptide) | D: compound efficacy for NMNAT2 activation; increase in NMNAT2 luciferase activity (NMNAT2)
28 | Cc1ccccc1Cn1cc(CCC(=O)NCC2=CC=CC2)c2ccccc21 [BC181242] |  | + (“+” <20% increase in NMNAT2 luciferase activity.)
29 | Cc1ccccc1Cn1cc(CCC(=O)NCc2ccco2)c2ccccc21 [BC181243] |  | ++ (“++” >20% and <100% increase in NMNAT2 luciferase activity.)
30 | Cc1ccccc1Cn1cc(CCC(=O)NCC2=CC=CC2)c2ccccc21 [BC181244] |  | ++ (“++” >20% and <100% increase in NMNAT2 luciferase activity.)
31 | Cc1ccc(C)c(Cn2cc(CCC(=O)NCc3ccco3)c3ccccc32)c1 [BC181245] |  | ++ (“++” >20% and <100% increase in NMNAT2 luciferase activity.)
32 | Cc1ccc(C)c(Cn2cc(CCC(=O)NCC3=CC=CC3)c3ccccc32)c1 [BC181246] |  | ++ (“++” >20% and <100% increase in NMNAT2 luciferase activity.)
33 | Cc1c(C)n(Cc2ccccc2)c2ccc(C(=O)NCc3ccco3)cc12 [BC181247] |  | +++ (“+++” >100% increase in NMNAT2 luciferase activity.)
34 | Cc1ccc(CNC(=O)c2ccc3c(c2)c(C)c(C)n3Cc2ccccc2)o1 [BC181248] |  | ++ (“++” >20% and <100% increase in NMNAT2 luciferase activity.)
35 | Cc1ccc2c(c1)c(=O)c(C(=O)c1ccncc1)cn2CC(=O)NCc1ccccc1 [BC181249] |  | + (“+” <20% increase in NMNAT2 luciferase activity.)
36 | Cc1ccc(CNC(=O)Cn2cc(C(=O)c3ccncc3)c(=O)c3cc(C)ccc32)cc1 [BC181250] |  | + (“+” <20% increase in NMNAT2 luciferase activity.)
37 | Cc1ccc2c(c1)c(=O)c(C(=O)c1ccncc1)cn2CC(=O)NCc1ccc(Cl)cc1 [BC181251] |  | ++ (“++” >20% and <100% increase in NMNAT2 luciferase activity.)
38 | Cc1ccc2c(c1)c(=O)c(C(=O)c1ccncc1)cn2CC(=O)NCc1ccc(F)cc1 [BC181252] |  | ++ (“++” >20% and <100% increase in NMNAT2 luciferase activity.)
39 | O=C(Cn1cc(C(=O)c2ccncc2)c(=O)c2cc(F)ccc21)NCc1ccccc1 [BC181253] |  | ++ (“++” >20% and <100% increase in NMNAT2 luciferase activity.)
40 | Cc1cc2c(=O)c(C(=O)c3ccncc3)cn(CC(=O)NCc3ccccc3)c2cc1C [BC181254] |  | ++ (“++” >20% and <100% increase in NMNAT2 luciferase activity.)
41 | Cc1ccc(CNC(=O)Cn2cc(C(=O)c3ccncc3)c(=O)c3cc(C)c(C)cc32)cc1 [BC181255] |  | + (“+” <20% increase in NMNAT2 luciferase activity.)
42 | O=C(Cn1cc(C(=O)c2ccncc2)c(=O)c2cc(Br)ccc21)NCc1ccccc1 [BC181256] |  | + (“+” <20% increase in NMNAT2 luciferase activity.)
43 | O=C(Cn1cc(C(=O)c2ccccc2)c2ccccc21)NCc1ccc2c(c1)OCCCO2 [BC181257] |  | + (“+” <20% increase in NMNAT2 luciferase activity.)
44 | Cc1ccc(Cn2cc(C(CC(=O)NCc3ccco3)c3ccc(C)cc3)c3ccccc32)cc1 (stereo not drawn) [BC181258] |  | ++ (“++” >20% and <100% increase in NMNAT2 luciferase activity.)
45 | Cc1ccc(Cn2cc(C(CC(=O)NCc3ccco3)c3cccc(C)c3)c3ccccc32)cc1 (stereo not drawn) [BC181259] |  | ++ (“++” >20% and <100% increase in NMNAT2 luciferase activity.)
46 | Cc1ccc(Cn2cc(C(CC(=O)NCc3ccco3)c3ccccc3C)c3ccccc32)cc1 (stereo not drawn) [BC181260] |  | ++ (“++” >20% and <100% increase in NMNAT2 luciferase activity.)
47 | COc1ccc(C(CC(=O)NCc2ccco2)c2cn(Cc3ccc(C)cc3)c3ccccc23)cc1 (stereo not drawn) [BC181261] |  | ++ (“++” >20% and <100% increase in NMNAT2 luciferase activity.)
48 | Cc1ccc(Cn2cc(C(CC(=O)NCc3ccco3)c3ccc(C)cc3)c3ccccc32)cc1 (stereo not drawn) [BC181262] |  | ++ (“++” >20% and <100% increase in NMNAT2 luciferase activity.)
49 | COc1ccc(Cn2cc(C(CC(=O)NCc3ccco3)C(C)(C)C)c3ccccc32)cc1 (stereo not drawn) [BC181263] |  | ++ (“++” >20% and <100% increase in NMNAT2 luciferase activity.)
50 | O=C(CC(CCc1ccccc1)c1cn(Cc2ccccc2)c2ccccc12)NCc1ccco1 (stereo not drawn) [BC181264] |  | + (“+” <20% increase in NMNAT2 luciferase activity.)
51 | Cc1ccc(Cn2cc(C(CC(=O)NCc3ccco3)C(C)C)c3ccccc32)cc1 (stereo not drawn) [BC181265] |  | + (“+” <20% increase in NMNAT2 luciferase activity.)
52 | CC(=O)c1cn(CC(=O)NCc2ccncc2)c2ccccc12 [BC181266] |  | + (“+” <20% increase in NMNAT2 luciferase activity.)
53 | CC(=O)c1cn(CC(=O)NCc2ccc(C)cc2)c2ccccc12 [BC181267] |  | + (“+” <20% increase in NMNAT2 luciferase activity.)
54 | CC(=O)c1cn(CC(=O)NCCn2ccc3ccc(C)cc32)c2ccccc12 [BC181268] |  | ++ (“++” >20% and <100% increase in NMNAT2 luciferase activity.)
